Like-named read-outs stand apart in the source and are kept apart here.
Tests used:
[1] = Relaxivity r1 in water at 20 MHz; type: physicochemical; details: absence of HSA
[2] = target: human serum albumin (HSA) (Homo sapiens, UniProt P02768); details: presence of HSA, 20 MHz
[3] = Decomplexation of Mn(II) complexes: transmetallation with Cu2+ ions followed by spectrophotometry; type: physicochemical; details: pH 7.4, 25 °C, read-out: t½ (half-life of decomplexation) (converted)
Experimental: These studies were performed by following the transmetallation reaction between the Mn^2+ based complexes and Cu^2+ ions by spectrophotometry as reported in […]. Inorganic Chemistry (2012), 51, 10065-7.

[4] = calculated using rate constants

Sequence of human serum albumin (HSA) (P02768 25-609): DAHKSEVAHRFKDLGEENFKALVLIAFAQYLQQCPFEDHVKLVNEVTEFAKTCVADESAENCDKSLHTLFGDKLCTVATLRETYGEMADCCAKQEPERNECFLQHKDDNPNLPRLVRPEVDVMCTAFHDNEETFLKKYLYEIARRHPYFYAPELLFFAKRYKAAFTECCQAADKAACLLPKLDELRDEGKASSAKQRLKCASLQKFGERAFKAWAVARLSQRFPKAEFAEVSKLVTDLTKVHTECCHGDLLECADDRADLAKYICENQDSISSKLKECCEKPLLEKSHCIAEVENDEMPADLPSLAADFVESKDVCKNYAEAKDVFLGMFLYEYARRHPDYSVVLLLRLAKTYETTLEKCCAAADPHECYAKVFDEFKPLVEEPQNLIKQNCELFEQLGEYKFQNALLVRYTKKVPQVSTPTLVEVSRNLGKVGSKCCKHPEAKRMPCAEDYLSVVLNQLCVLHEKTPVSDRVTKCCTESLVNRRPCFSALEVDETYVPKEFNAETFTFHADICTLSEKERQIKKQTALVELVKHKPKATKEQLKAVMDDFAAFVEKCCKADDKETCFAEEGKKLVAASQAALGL

Row | SMILES | r1 (relaxivity) ([1]; 25 °C) [mM⁻¹ s⁻¹] | r1 (relaxivity) ([1]; 37 °C) [mM⁻¹ s⁻¹] | r1 HSA (relaxivity) ([2]; 25 °C) [mM⁻¹ s⁻¹] | r1 HSA (relaxivity) ([2]; 37 °C) [mM⁻¹ s⁻¹] | half-life [3, 4] [h] | half-life ([3]; footnote: half-life in seconds) [h]
1 | O=C(O)CN(CC(=O)N1CCC(C(=O)O)CC1)C1CCCCC1N(CC(=O)O)CC(=O)N1CCC(C(=O)O)CC1 (stereo not drawn) | 4.97 | 3.75 | 5.98 | 4.65 | – | –
2 | O=C(O)CN(CC(=O)N1CCC(Cc2ccccc2)CC1)C1CCCCC1N(CC(=O)O)CC(=O)N1CCC(Cc2ccccc2)CC1 (stereo not drawn) | 5.56 | 4.17 | 19.44 | 18.16 | – | –
3 | O=C(O)CN(CC(=O)N1CCOCC1)C1CCCCC1N(CC(=O)O)CC(=O)N1CCOCC1 (stereo not drawn) | 3.77 | 2.95 | 7.64 | 6.57 | – | –
4 | O=C(O)CN(CC(=O)N1CCCCC1)C1CCCCC1N(CC(=O)O)CC(=O)N1CCCCC1 (stereo not drawn) [drawing 20] | 4.43 | 3.49 | 5.63 | 4.56 | – | –
5 | O=C(O)CN(CC(=O)NC(CO)CO)C1CCCCC1N(CC(=O)O)CC(=O)NC(CO)CO (stereo not drawn) [drawing 24] | 5.17 | 3.94 | 6.01 | 4.44 | – | –
6 | CN(C)C(=O)CN(CC(=O)O)C1CCCCC1N(CC(=O)O)CC(=O)N(C)C (stereo not drawn) [drawing 25] | 4.37 | 3.43 | 13.10 | 9.94 | – | –
7 | CCCCNC(=O)CN(CC(=O)O)C1CCCCC1N(CC(=O)O)CC(=O)NCCCC (stereo not drawn) [drawing 26] | 4.64 | 3.62 | 6.55 | 5.37 | – | –
8 | O=C(O)CN(CC(=O)N1CCCCC1)c1ccccc1N(CC(=O)O)CC(=O)N1CCCCC1 [drawing 27] | 4.60 | 3.50 | 9.09 | 6.78 | – | –
9 | O=C(O)CN(CC(=O)N1CCC(Cc2ccccc2)CC1)c1ccccc1N(CC(=O)O)CC(=O)N1CCC(Cc2ccccc2)CC1 [drawing 28] | 5.29 | 4.04 | 28.20 | 23.84 | – | –
10 | O=C(O)CN(CC(=O)N1CCCCC1)C1CCCCC1N(CC(=O)O)CC(=O)N1CCCCC1 (stereo not drawn) [drawing 29] | – | – | – | – | 285 | –
11 | O=C(O)CN(CC(=O)NC(CO)CO)C1CCCCC1N(CC(=O)O)CC(=O)NC(CO)CO (stereo not drawn) [drawing 37] | – | – | – | – | 166 | –
12 | CN(C)C(=O)CN(CC(=O)O)C1CCCCC1N(CC(=O)O)CC(=O)N(C)C (stereo not drawn) [drawing 38] | – | – | – | – | 131 | –
13 | CCCCNC(=O)CN(CC(=O)O)C1CCCCC1N(CC(=O)O)CC(=O)NCCCC (stereo not drawn) [drawing 39] | – | – | – | – | 57 | –
14 | O=C(O)CN(CC(=O)N1CCCCC1)c1ccccc1N(CC(=O)O)CC(=O)N1CCCCC1 [drawing 40] | – | – | – | – | – | 0.0231
15 | O=C(O)CN(CC(=O)N1CCC(Cc2ccccc2)CC1)c1ccccc1N(CC(=O)O)CC(=O)N1CCC(Cc2ccccc2)CC1 [drawing 41] | – | – | – | – | – | 0.0167
